The results in this text go back to BindingDB's records for doi:10.1038/sj.bjp.0705908 (Abbott Laboratories, 2004).

For this test, the target named is T1, Calcium-activated potassium channel subunit beta (Sus scrofa, UniProt C0KY85).
T1 sequence (C0KY85 whole entry): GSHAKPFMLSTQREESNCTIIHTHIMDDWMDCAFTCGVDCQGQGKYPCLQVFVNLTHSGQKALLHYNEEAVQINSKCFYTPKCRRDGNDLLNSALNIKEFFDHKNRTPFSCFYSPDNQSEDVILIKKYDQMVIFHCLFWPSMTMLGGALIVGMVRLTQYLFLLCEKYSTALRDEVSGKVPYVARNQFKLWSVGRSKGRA

The Ki is the equilibrium dissociation constant of an inhibitor or competing ligand from its target. Consider `CCC(C)(C)NC(=NC#N)Nc1cccnc1` [NSC_43345], for which the Ki was determined as 10.7 nM.
